Some test systems named below: CCRF-CEM leukemia; HCT-116 colon; EKVX NSCLC; DU-145 prostate; PC-3 prostate; HOP-92 NSCLC; MCF7 breast; OVCAR-4 ovarian; NCI-H226 lung; RPMI-8226 leukemia.
Holding throughout (experiment): inhibition of tumour cell growth, NCI panel, 48 h

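Where inhibition never reached the appropriate level, the endpoint shown equals the highest concentration tested. Otherwise, values were interpolated linearly from a five-concentration, 48-hour dose response in 96-well plates. GI50 marks 50% less growth. TGI denotes the concentration required for complete inhibition of growth.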 Bounds are passed on as bounds.

For `CCN1CCN(CCNc2nccc(-c3c(-c4ccc(F)c(O)c4)nc4occn34)n2)S1(=O)=O`, the GI50 is 2200 nM in the experiment with CCRF-CEM leukemia; 3760 nM in the experiment with HCT-116 colon; 6810 nM with EKVX NSCLC; 3750 nM in the experiment with DU-145 prostate; 2120 nM in the experiment with PC-3 prostate; 52100 nM with HOP-92 NSCLC. In addition, the values for the GI50 in the experiment on MCF7 breast, in the experiment with OVCAR-4 ovarian and in the experiment with NCI-H226 lung were 3820 nM, 4590 nM and 3800 nM, respectively. Further, the TGI in the experiment with CCRF-CEM leukemia, in the experiment on HCT-116 colon, in the experiment on EKVX NSCLC, in the experiment on DU-145 prostate, in the experiment on PC-3 prostate and in the experiment with HOP-92 NSCLC was above 100 µM throughout. The TGI in the experiment with MCF7 breast, in the experiment with OVCAR-4 ovarian and in the experiment with NCI-H226 lung was above 100 µM throughout.

With `COc1ccc2c(c1)c(-c1nc(-c3cn(C)c4ccncc34)cs1)cn2C`, the GI50 in the experiment on CCRF-CEM leukemia is 2150 nM; in the experiment on EKVX NSCLC it was 1770 nM; in the experiment on DU-145 prostate it was 1780 nM; with PC-3 prostate, 1890 nM; in the experiment on HOP-92 NSCLC, 1960 nM; with MCF7 breast, 1700 nM. The GI50 in the experiment on OVCAR-4 ovarian was 2100 nM; in the experiment on NCI-H226 lung, 1830 nM. Besides, the TGI in the experiment with CCRF-CEM leukemia worked out at 6.05 µM; with EKVX NSCLC, 3.56 µM; in the experiment on DU-145 prostate, 3.34 µM; in the experiment on PC-3 prostate, 4.79 µM; in the experiment with HOP-92 NSCLC, 3.79 µM; in the experiment on MCF7 breast, 3.34 µM. Moreover, the values for the TGI in the experiment with OVCAR-4 ovarian and in the experiment on NCI-H226 lung were 4.62 µM and 3.75 µM, respectively.

As to `CC1=C([Te]c2ccccc2)C(=O)c2ccccc2C1=O`, the GI50 with CCRF-CEM leukemia is 312 nM; in the experiment with HCT-116 colon it was 284 nM; in the experiment on EKVX NSCLC it was 207 nM; in the experiment on DU-145 prostate it was 424 nM; in the experiment on PC-3 prostate, 297 nM; in the experiment with HOP-92 NSCLC it was 315 nM. The GI50 in the experiment on MCF7 breast was 249 nM; with OVCAR-4 ovarian, 1630 nM; in the experiment with RPMI-8226 leukemia it was 275 nM. The TGI in the experiment on CCRF-CEM leukemia came to 3.3 µM; in the experiment on HCT-116 colon, 0.901 µM; in the experiment on EKVX NSCLC it was 0.76 µM; in the experiment on DU-145 prostate it was 1.58 µM; in the experiment on PC-3 prostate it was 2.03 µM; with HOP-92 NSCLC, 1.39 µM. Further, the TGI stood at 0.943 µM with MCF7 breast, 3.53 µM in the experiment with OVCAR-4 ovarian and 1.31 µM in the experiment on RPMI-8226 leukemia.

In the case of `Cc1cc(OCc2nnc3n2S(=O)(=O)c2ccccc2N3C)ccc1Cl`, the TGI in the experiment with CCRF-CEM leukemia is 38 µM; in the experiment with HCT-116 colon, above 100 µM; in the experiment with EKVX NSCLC it was above 100 µM; in the experiment on DU-145 prostate it was above 100 µM; in the experiment on PC-3 prostate, above 100 µM; in the experiment with HOP-92 NSCLC, 36.4 µM. Besides, the TGI was above 100 µM in the experiment with MCF7 breast, 24.2 µM in the experiment with OVCAR-4 ovarian and above 100 µM in the experiment with NCI-H226 lung.

Regarding `C=C(C)[C@@H]1CC[C@]2(CO)CC[C@]3(C)[C@H](CC[C@@H]4[C@@]5(C)CCCNC(C)(C)[C@@H]5CC[C@]43C)[C@@H]12`, the GI50 in the experiment on CCRF-CEM leukemia was 2070 nM; in the experiment with HCT-116 colon, 1290 nM; in the experiment with EKVX NSCLC it was 1550 nM; with DU-145 prostate, 1630 nM; in the experiment with PC-3 prostate, 1510 nM; with HOP-92 NSCLC it was 1730 nM. Also, the GI50 in the experiment on MCF7 breast is 1290 nM; in the experiment on NCI-H226 lung, 1980 nM; in the experiment with RPMI-8226 leukemia it was 1940 nM. Besides, the TGI was found to be 4.91 µM in the experiment with CCRF-CEM leukemia; 2.63 µM in the experiment on HCT-116 colon; 3.03 µM in the experiment on EKVX NSCLC; 3.02 µM in the experiment with DU-145 prostate; 2.94 µM in the experiment on PC-3 prostate; 3.33 µM with HOP-92 NSCLC. For the same compound, the TGI with MCF7 breast worked out at 2.77 µM; with NCI-H226 lung, 4.09 µM; with RPMI-8226 leukemia it was 4.51 µM.

Turning to `CCC(CC)n1cnc2c(-c3cnc(N)cn3)nc(N3CC4CCC(C3)O4)nc21`, the GI50 with CCRF-CEM leukemia was 443 nM; with HCT-116 colon it was 630 nM; with DU-145 prostate, 930 nM; in the experiment with PC-3 prostate, 104 nM; in the experiment on HOP-92 NSCLC it was 13 nM; in the experiment on MCF7 breast, 156 nM. The values for the GI50 with OVCAR-4 ovarian, in the experiment on NCI-H226 lung and in the experiment with RPMI-8226 leukemia were 169 nM, 549 nM and 102 nM, respectively. Further, the TGI is above 100 µM with CCRF-CEM leukemia; above 100 µM in the experiment on HCT-116 colon; above 100 µM in the experiment on DU-145 prostate; above 100 µM in the experiment on PC-3 prostate; 0.145 µM in the experiment with HOP-92 NSCLC; above 100 µM in the experiment with MCF7 breast. The TGI in the experiment on OVCAR-4 ovarian was 3.17 µM; with NCI-H226 lung, above 100 µM; in the experiment on RPMI-8226 leukemia, 5.75 µM.

For the compound `COc1cc(-c2nn(-c3cccc(NC(=O)Nc4ccc(Cl)c(C(F)(F)F)c4)c3)cc2-c2ccncc2)ccc1Cl`, the GI50 in the experiment on CCRF-CEM leukemia was 979 nM; in the experiment on HCT-116 colon, 1170 nM; with DU-145 prostate, 1500 nM; with PC-3 prostate, 690 nM; in the experiment on HOP-92 NSCLC, 499 nM; with MCF7 breast, 919 nM. The GI50 is 1290 nM in the experiment on OVCAR-4 ovarian, 1820 nM in the experiment on NCI-H226 lung and 868 nM in the experiment with RPMI-8226 leukemia. The TGI in the experiment on CCRF-CEM leukemia was above 32.5 µM; in the experiment on HCT-116 colon, 4.56 µM; in the experiment with DU-145 prostate, above 32.5 µM; in the experiment on PC-3 prostate, 2.45 µM; in the experiment on HOP-92 NSCLC, 1.48 µM; in the experiment on MCF7 breast it was above 32.5 µM. The TGI in the experiment on OVCAR-4 ovarian was 25.6 µM; with NCI-H226 lung, above 32.5 µM; with RPMI-8226 leukemia, 3.25 µM.

Consider `[N-]=[N+]=NCN1C(=O)C2C3C=CC(C2C1=O)C1C2C(=O)N(CN=[N+]=[N-])C(=O)C2C31` (stereo not given), for which the TGI in the experiment with HCT-116 colon, with EKVX NSCLC, in the experiment with DU-145 prostate, in the experiment with PC-3 prostate, with HOP-92 NSCLC and in the experiment with MCF7 breast was above 100 µM in each case. This compound also registered a TGI in the experiment on RPMI-8226 leukemia above 100 µM.

Turning to `COc1ccc(Nc2nc(NCCNc3ccnc4cc(Cl)ccc34)nc(N3CCOCC3)n2)cc1`, the GI50 in the experiment on CCRF-CEM leukemia was 2950 nM; in the experiment with HCT-116 colon it was 3010 nM; with DU-145 prostate, 9800 nM; in the experiment with PC-3 prostate, 3940 nM; in the experiment on HOP-92 NSCLC, 1160 nM; in the experiment on MCF7 breast it was 2860 nM. Moreover, the values for the GI50 with OVCAR-4 ovarian, in the experiment with NCI-H226 lung and in the experiment with RPMI-8226 leukemia were 9000 nM, 3890 nM and 2750 nM, respectively. The TGI in the experiment with CCRF-CEM leukemia was 15.4 µM; in the experiment on HCT-116 colon, 14.8 µM; in the experiment with DU-145 prostate it was 21.9 µM; in the experiment on PC-3 prostate, 19.8 µM; with HOP-92 NSCLC, 13 µM; in the experiment on MCF7 breast, 12.8 µM. The TGI was determined as 24.5 µM with OVCAR-4 ovarian, 18.3 µM in the experiment on NCI-H226 lung and 13.1 µM in the experiment with RPMI-8226 leukemia.

The values are drawn from PubChem BioAssay (NCI).
